Experimental data from PubChem BioAssay AID328 (DTP/NCI, 2004).
Several values for one entry are separate records, joined by “and”; a condition that tells them apart may be missing. Equal entries are not always repeated. Inconclusive results and toxic doses are left out.

Tested on: BDF1 mice, P388 leukemia ip, median survival T/C
Experiment: NCI In Vivo Anticancer Drug Screen. Data for tumor model P388 Leukemia (intraperitoneal) in B6D2F1 (BDF1) mice
Conditions: endpoint: median survival time, higher = longer survival
In short: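 T/C = treated-group survival ÷ vehicle-control survival; tumour transplanted into mice before dosing.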

[1] = dose: 100.0 mg/kg/injection, schedule: Q04DX003 (ip), vehicle: Klucel (hydroxypropylcellulose) (HPC)
[2] = dose: 200.0 mg/kg/injection, schedule: Q04DX003 (ip), vehicle: Klucel (hydroxypropylcellulose) (HPC)
[3] = dose: 25.0 mg/kg/injection, schedule: Q01DX009 (ip), vehicle: saline with Tween-80
[4] = dose: 50.0 mg/kg/injection, schedule: Q01DX009 (ip), vehicle: saline with Tween-80
[5] = dose: 50.0 mg/kg/injection, schedule: Q04DX003 (ip), vehicle: Klucel (hydroxypropylcellulose) (HPC)
[6] = dose: 100.0 mg/kg/injection, schedule: Q01DX009 (ip), vehicle: saline with Tween-80
[7] = dose: 100.0 mg/kg/injection, schedule: Q04DX003 (ip), vehicle: saline with Tween-80
[8] = dose: 200.0 mg/kg/injection, schedule: Q01DX009 (ip), vehicle: saline with Tween-80
[9] = dose: 200.0 mg/kg/injection, schedule: Q04DX003 (ip), vehicle: saline with Tween-80
[10] = dose: 400.0 mg/kg/injection, schedule: Q01DX009 (ip), vehicle: saline with Tween-80
[11] = dose: 400.0 mg/kg/injection, schedule: Q04DX003 (ip), vehicle: saline with Tween-80
[12] = dose: 12.5 mg/kg/injection, schedule: Q01DX009 (ip), vehicle: saline with Tween-80
[13] = dose: 50.0 mg/kg/injection, schedule: Q04DX003 (ip), vehicle: saline
[14] = dose: 100.0 mg/kg/injection, schedule: Q04DX003 (ip), vehicle: saline
[15] = dose: 200.0 mg/kg/injection, schedule: Q04DX003 (ip), vehicle: saline

O=[N+]([O-])c1cccc(Oc2ncccc2[N+](=O)[O-])c1
T/C (dose: 65.0 mg/kg/injection, schedule: Q04DX003 (ip), vehicle: Klucel (hydroxypropylcellulose) (HPC)): 118 % of control | T/C [1]: 109 % of control | T/C (dose: 150.0 mg/kg/injection, schedule: Q04DX003 (ip), vehicle: Klucel (hydroxypropylcellulose) (HPC)): 109 % of control | T/C [2]: 105 % of control | T/C (dose: 400.0 mg/kg/injection, schedule: Q04DX003 (ip), vehicle: Klucel (hydroxypropylcellulose) (HPC)): 115 % of control

O=[N+]([O-])c1ccc(S(=O)(=O)OCc2ccccc2OS(=O)(=O)c2ccc([N+](=O)[O-])cc2)cc1
T/C [3]: 109 % of control | T/C (dose: 25.0 mg/kg/injection, schedule: Q04DX003 (ip), vehicle: Klucel (hydroxypropylcellulose) (HPC)): 110 % of control | T/C [4]: 114 % of control | T/C [5]: 100 % of control | T/C [6]: 114 % of control | T/C [1]: 95 % of control

COC(=O)C(NC(=O)OCc1ccccc1)C(=O)OC
T/C [6]: 104 % of control | T/C [7]: 104 % of control | T/C [8]: 95 % of control | T/C [9]: 109 % of control | T/C [10]: 95 % of control | T/C [11]: 100 % of control

O=C1C=C(Cl)C(=O)C(Cl)=C1
T/C (dose: 3.0 mg/kg/injection, schedule: Q01DX009 (ip), vehicle: Klucel (hydroxypropylcellulose) (HPC)): 100 % of control | T/C (dose: 6.0 mg/kg/injection, schedule: Q01DX009 (ip), vehicle: Klucel (hydroxypropylcellulose) (HPC)): 87 % of control | T/C (dose: 6.25 mg/kg/injection, schedule: Q04DX003 (ip), vehicle: Klucel (hydroxypropylcellulose) (HPC)): 95 % of control | T/C (dose: 12.5 mg/kg/injection, schedule: Q04DX003 (ip), vehicle: Klucel (hydroxypropylcellulose) (HPC)): 100 % of control

Nc1nc(N)c2cc(Sc3ccc4ccccc4c3)ccc2n1
T/C [4]: 113 % of control | T/C [6]: 123 % of control

O=[N+]([O-])c1ccc(/C=N\Nc2ccc([N+](=O)[O-])cn2)cc1
T/C [12]: 110 % of control | T/C [3]: 120 % of control | T/C [4]: 120 % of control | T/C [6]: 90 % of control | T/C (dose: 100.0 mg/kg/injection, schedule: Q04DX003 (ip), vehicle: saline sonified): 100 % of control | T/C [8]: 90 % of control | T/C (dose: 200.0 mg/kg/injection, schedule: Q04DX003 (ip), vehicle: saline sonified): 110 % of control | T/C (dose: 400.0 mg/kg/injection, schedule: Q04DX003 (ip), vehicle: saline sonified): 120 % of control

O=[N+]([O-])c1ccc(Oc2cc(Cl)c(Cl)cc2Cl)c([N+](=O)[O-])c1
T/C (dose: 200.0 mg/kg/injection, schedule: Q01DX009 (ip), vehicle: saline sonified): 90 % of control | T/C (dose: 400.0 mg/kg/injection, schedule: Q01DX009 (ip), vehicle: saline sonified): 90 % of control

O=C1NC2NC(=O)NC2N1 (stereo not given)
T/C [7]: 100 % of control | T/C [9]: 100 % of control | T/C [11]: 104 % of control

N=C(N)c1ccc(C(=O)Oc2ccc([N+](=O)[O-])cc2)cc1
T/C (dose: 50.0 mg/kg/injection, schedule: Q04DX003 (ip), vehicle: saline with Tween-80): 109 % of control | T/C [7]: 109 % of control | T/C [9]: 109 % of control

Nc1ncns1
T/C [13]: 101 % of control | T/C [14]: 120 % of control

Cc1ccc(S(=O)(=O)CC#CCOc2ccccc2)cc1
T/C [13]: 100 % of control | T/C [14]: 100 % of control | T/C [15]: 104 % of control

CN(CCCCN(C)CCOS(C)(=O)=O)CCOS(C)(=O)=O
T/C (dose: 0.8 mg/kg/injection, schedule: Q04DX003 (ip), vehicle: saline): 177 % of control | T/C (dose: 1.2 mg/kg/injection, schedule: Q04DX003 (ip), vehicle: saline): 172 % of control | T/C (dose: 1.8 mg/kg/injection, schedule: Q04DX003 (ip), vehicle: saline): 154 % of control

CC1CN1P(=S)(N1CCCC1)N1CC1C (stereo not given)
T/C (dose: 17.8 mg/kg/injection, schedule: Q01DX009 (ip), vehicle: saline with Tween-80): 112 % of control | T/C (dose: 26.6 mg/kg/injection, schedule: Q01DX009 (ip), vehicle: saline with Tween-80): 114 % of control | T/C (dose: 40.0 mg/kg/injection, schedule: Q01DX009 (ip), vehicle: saline with Tween-80): 168 % of control | T/C [4]: 150 % of control | T/C (dose: 60.0 mg/kg/injection, schedule: Q01DX009 (ip), vehicle: saline with Tween-80): 214 % of control | T/C [6]: 170 % of control

COc1cc2c(cc1OC)C(=O)N(C)CC2
T/C (dose: 50.0 mg/kg/injection, schedule: Q01DX009 (ip), vehicle: saline): 105 % of control | T/C (dose: 100.0 mg/kg/injection, schedule: Q01DX009 (ip), vehicle: water): 97 % of control | T/C (dose: 200.0 mg/kg/injection, schedule: Q01DX009 (ip), vehicle: saline): 119 % of control

Nc1ccccc1CCCC(=O)O
T/C [14]: 100 % of control | T/C [15]: 100 % of control | T/C (dose: 400.0 mg/kg/injection, schedule: Q04DX003 (ip), vehicle: saline): 104 % of control

CC(C)Cc1c(N)nc(=O)[nH]c1C(=O)O
T/C [5]: 109 % of control | T/C [1]: 95 % of control | T/C [2]: 100 % of control

C=C1C(=O)C2(C)OC2(C)C1C(=O)O (stereo not given)
T/C (dose: 1.25 mg/kg/injection, schedule: Q01DX009 (ip), vehicle: Klucel (hydroxypropylcellulose) (HPC)): 98 % of control | T/C (dose: 2.5 mg/kg/injection, schedule: Q01DX009 (ip), vehicle: Klucel (hydroxypropylcellulose) (HPC)): 114 % of control | T/C (dose: 5.0 mg/kg/injection, schedule: Q01DX009 (ip), vehicle: Klucel (hydroxypropylcellulose) (HPC)): 120 % of control | T/C (dose: 10.0 mg/kg/injection, schedule: Q01DX009 (ip), vehicle: Klucel (hydroxypropylcellulose) (HPC)): 109 % of control

CC12CCCCC1C/C(=N/NC(N)=O)CC2 (stereo not given)
T/C (dose: 5.0 mg/kg/injection, schedule: Q01DX001 (ip), vehicle: saline): 100 % of control | T/C (dose: 10.0 mg/kg/injection, schedule: Q01DX001 (ip), vehicle: saline): 100 % of control | T/C (dose: 20.0 mg/kg/injection, schedule: Q01DX001 (ip), vehicle: saline): 100 % of control | T/C (dose: 40.0 mg/kg/injection, schedule: Q01DX001 (ip), vehicle: saline): 104 % of control

COc1ccc(C(=O)CC(C#N)c2ccc3c(c2)OCO3)cc1OC (stereo not given)
T/C [6]: 90 % of control | T/C [8]: 100 % of control | T/C [10]: 95 % of control

O=C1CC2(C(=O)N1CN(Cc1ccccc1)Cc1ccccc1)c1ccccc1-c1ccccc12
T/C (dose: 100.0 mg/kg/injection, schedule: Q04DX002 (ip), vehicle: saline with Tween-80): 87 % of control | T/C (dose: 200.0 mg/kg/injection, schedule: Q04DX002 (ip), vehicle: saline with Tween-80): 86 % of control | T/C (dose: 400.0 mg/kg/injection, schedule: Q04DX002 (ip), vehicle: saline with Tween-80): 93 % of control

S=c1c(S)c(S)c1=S
T/C (dose: 100.0 mg/kg/injection, schedule: Q04DX002 (ip), vehicle: saline): 100 % of control | T/C (dose: 200.0 mg/kg/injection, schedule: Q04DX002 (ip), vehicle: saline): 100 % of control | T/C (dose: 400.0 mg/kg/injection, schedule: Q04DX002 (ip), vehicle: saline): 100 % of control

CC(=O)OC(=O)C(Cc1ccccc1)NC(=O)C(N)CCCN=C(N)N (stereo not given)
T/C (dose: 50.0 mg/kg/injection, schedule: Q01DX005 (ip), vehicle: saline with Tween-80): 98 % of control | T/C (dose: 100.0 mg/kg/injection, schedule: Q01DX005 (ip), vehicle: saline with Tween-80): 103 % of control

CN(C)c1ccc(/C=C/c2ccnc3cc(Cl)ccc23)cc1
T/C [4]: 118 % of control | T/C [6]: 100 % of control | T/C [8]: 93 % of control

Nc1nc2c(ncn2C2CC(O)C(CO)O2)c(=O)n1N (stereo not given)
T/C [12]: 97 % of control | T/C [3]: 111 % of control | T/C [4]: 108 % of control | T/C [6]: 101 % of control

Cn1c(=O)c2nc(-c3ccc(Cl)c(Cl)c3)c(-c3ccc(Cl)c(Cl)c3)nc2n(C)c1=O
T/C (dose: 3.13 mg/kg/injection, schedule: Q01DX001 (ip), vehicle: saline with Tween-80): 100 % of control | T/C (dose: 6.25 mg/kg/injection, schedule: Q01DX001 (ip), vehicle: saline with Tween-80): 101 % of control | T/C (dose: 12.5 mg/kg/injection, schedule: Q01DX001 (ip), vehicle: saline with Tween-80): 99 % of control | T/C (dose: 25.0 mg/kg/injection, schedule: Q01DX001 (ip), vehicle: saline with Tween-80): 90 % of control and 101 % of control | T/C (dose: 50.0 mg/kg/injection, schedule: Q01DX001 (ip), vehicle: saline with Tween-80): 107 % of control | T/C (dose: 100.0 mg/kg/injection, schedule: Q01DX001 (ip), vehicle: saline with Tween-80): 87 % of control | T/C (dose: 400.0 mg/kg/injection, schedule: Q01DX001 (ip), vehicle: saline with Tween-80): 96 % of control
